Results reported in ChEMBL document CHEMBL1201862, “PubChem BioAssay data set” (2004).
Activity calls are given as the source filed them.

Experiments:
[1] = target: T1, RNA-binding protein pos-1 (Caenorhabditis elegans, UniProt G5EF15); experiment: disruptors of C. elegans POS-1 RNA interaction – biochemical, fluorescence polarization, dose response (AID 1964);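 note: purified POS-1 fused to maltose binding protein made in E. coli; potency of compounds blocking POS-1 binding to fluorescent RNA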
T1 sequence (G5EF15 whole entry): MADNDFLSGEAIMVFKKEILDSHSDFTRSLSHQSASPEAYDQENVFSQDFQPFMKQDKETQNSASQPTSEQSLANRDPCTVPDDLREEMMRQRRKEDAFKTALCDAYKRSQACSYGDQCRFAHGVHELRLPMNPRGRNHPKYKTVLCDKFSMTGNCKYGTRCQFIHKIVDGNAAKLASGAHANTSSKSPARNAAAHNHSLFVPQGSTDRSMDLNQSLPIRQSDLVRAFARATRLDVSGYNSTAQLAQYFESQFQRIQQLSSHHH

[2] = target: T2, Zinc finger protein mex-5 (Caenorhabditis elegans, UniProt Q9XUB2); experiment: potency of MEX-5 RNA-binding blockers – biochemical, C. elegans, fluorescence polarization, dose response (AID 1960)
T2 sequence (Q9XUB2 whole entry): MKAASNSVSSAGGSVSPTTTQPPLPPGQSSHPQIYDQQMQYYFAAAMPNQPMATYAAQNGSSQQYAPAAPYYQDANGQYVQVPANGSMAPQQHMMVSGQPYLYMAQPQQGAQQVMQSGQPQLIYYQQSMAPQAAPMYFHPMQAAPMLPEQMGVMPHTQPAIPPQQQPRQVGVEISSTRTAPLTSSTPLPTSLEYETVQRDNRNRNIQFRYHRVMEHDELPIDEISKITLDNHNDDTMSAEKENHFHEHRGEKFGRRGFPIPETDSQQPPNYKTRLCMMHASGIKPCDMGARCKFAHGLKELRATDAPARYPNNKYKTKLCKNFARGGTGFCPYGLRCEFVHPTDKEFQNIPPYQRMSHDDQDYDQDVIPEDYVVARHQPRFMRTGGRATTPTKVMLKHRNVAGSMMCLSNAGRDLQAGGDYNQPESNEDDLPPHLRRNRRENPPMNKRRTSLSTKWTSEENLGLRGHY

[3] = antibacterial activity against E. coli NEB5alpha – luminescence, counter-screen for MEX-5/POS-1 RNA-binding inhibitor project, dose response (AID 1959); format: functional
[4] = target: Large T antigen (Simian virus 40, UniProt P03070); format: functional, Betapolyomavirus macacae;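 note: Confirmatory-stage PubChem screen for compounds that inhibit SV40 T antigen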
Chain of Large T antigen (P03070 whole entry): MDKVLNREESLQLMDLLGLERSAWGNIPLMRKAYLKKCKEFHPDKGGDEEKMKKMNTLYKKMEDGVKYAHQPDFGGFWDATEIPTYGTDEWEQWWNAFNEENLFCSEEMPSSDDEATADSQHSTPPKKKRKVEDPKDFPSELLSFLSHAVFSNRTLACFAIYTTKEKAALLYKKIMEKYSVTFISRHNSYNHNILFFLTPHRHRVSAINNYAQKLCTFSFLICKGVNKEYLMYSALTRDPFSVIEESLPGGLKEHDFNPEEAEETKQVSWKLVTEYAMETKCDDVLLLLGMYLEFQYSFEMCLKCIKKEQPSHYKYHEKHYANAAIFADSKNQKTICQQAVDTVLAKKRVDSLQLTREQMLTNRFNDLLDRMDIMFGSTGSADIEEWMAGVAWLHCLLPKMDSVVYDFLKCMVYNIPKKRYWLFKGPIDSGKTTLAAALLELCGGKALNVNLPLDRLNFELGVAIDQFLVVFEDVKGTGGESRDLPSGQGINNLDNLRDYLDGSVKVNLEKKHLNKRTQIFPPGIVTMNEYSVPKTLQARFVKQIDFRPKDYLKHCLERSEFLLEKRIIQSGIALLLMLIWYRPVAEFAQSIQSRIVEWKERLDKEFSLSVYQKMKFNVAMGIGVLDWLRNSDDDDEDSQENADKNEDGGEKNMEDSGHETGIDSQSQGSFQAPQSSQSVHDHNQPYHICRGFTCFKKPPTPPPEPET

[5] = target: Luciferin 4-monooxygenase (Photinus pyralis, UniProt P08659); experiment: inhibition of purified Photinus pyralis luciferase – biochemical, luminescence, dose response (AID 1891)
Chain of Luciferin 4-monooxygenase (P08659 whole entry): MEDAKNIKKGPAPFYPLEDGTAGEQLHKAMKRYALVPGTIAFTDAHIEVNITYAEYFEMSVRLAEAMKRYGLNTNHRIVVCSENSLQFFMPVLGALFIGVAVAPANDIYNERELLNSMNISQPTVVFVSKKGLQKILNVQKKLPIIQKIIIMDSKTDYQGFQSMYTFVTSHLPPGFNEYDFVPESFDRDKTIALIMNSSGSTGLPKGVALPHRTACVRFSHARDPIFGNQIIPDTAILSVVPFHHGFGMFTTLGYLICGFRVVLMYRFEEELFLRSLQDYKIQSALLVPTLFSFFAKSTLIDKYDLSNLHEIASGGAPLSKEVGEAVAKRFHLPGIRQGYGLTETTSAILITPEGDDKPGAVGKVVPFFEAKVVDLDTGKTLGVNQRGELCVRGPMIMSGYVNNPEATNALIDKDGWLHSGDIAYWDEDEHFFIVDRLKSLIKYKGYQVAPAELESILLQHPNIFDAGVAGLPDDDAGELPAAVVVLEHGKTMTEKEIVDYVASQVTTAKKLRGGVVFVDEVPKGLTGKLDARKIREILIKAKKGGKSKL

[6] = Luminescence Cell-Based Dose Confirmation HTS to Identify Inhibitors of Platelet Dense Granule Release. [Related pubchem assays: 1663 (Primary HTS), 1678 (Summary of Project)]; format: functional
[7] = target: T3, Histone-lysine N-methyltransferase NSD2 (Homo sapiens, UniProt O96028); format: biochemical
T3 sequence (O96028 whole entry): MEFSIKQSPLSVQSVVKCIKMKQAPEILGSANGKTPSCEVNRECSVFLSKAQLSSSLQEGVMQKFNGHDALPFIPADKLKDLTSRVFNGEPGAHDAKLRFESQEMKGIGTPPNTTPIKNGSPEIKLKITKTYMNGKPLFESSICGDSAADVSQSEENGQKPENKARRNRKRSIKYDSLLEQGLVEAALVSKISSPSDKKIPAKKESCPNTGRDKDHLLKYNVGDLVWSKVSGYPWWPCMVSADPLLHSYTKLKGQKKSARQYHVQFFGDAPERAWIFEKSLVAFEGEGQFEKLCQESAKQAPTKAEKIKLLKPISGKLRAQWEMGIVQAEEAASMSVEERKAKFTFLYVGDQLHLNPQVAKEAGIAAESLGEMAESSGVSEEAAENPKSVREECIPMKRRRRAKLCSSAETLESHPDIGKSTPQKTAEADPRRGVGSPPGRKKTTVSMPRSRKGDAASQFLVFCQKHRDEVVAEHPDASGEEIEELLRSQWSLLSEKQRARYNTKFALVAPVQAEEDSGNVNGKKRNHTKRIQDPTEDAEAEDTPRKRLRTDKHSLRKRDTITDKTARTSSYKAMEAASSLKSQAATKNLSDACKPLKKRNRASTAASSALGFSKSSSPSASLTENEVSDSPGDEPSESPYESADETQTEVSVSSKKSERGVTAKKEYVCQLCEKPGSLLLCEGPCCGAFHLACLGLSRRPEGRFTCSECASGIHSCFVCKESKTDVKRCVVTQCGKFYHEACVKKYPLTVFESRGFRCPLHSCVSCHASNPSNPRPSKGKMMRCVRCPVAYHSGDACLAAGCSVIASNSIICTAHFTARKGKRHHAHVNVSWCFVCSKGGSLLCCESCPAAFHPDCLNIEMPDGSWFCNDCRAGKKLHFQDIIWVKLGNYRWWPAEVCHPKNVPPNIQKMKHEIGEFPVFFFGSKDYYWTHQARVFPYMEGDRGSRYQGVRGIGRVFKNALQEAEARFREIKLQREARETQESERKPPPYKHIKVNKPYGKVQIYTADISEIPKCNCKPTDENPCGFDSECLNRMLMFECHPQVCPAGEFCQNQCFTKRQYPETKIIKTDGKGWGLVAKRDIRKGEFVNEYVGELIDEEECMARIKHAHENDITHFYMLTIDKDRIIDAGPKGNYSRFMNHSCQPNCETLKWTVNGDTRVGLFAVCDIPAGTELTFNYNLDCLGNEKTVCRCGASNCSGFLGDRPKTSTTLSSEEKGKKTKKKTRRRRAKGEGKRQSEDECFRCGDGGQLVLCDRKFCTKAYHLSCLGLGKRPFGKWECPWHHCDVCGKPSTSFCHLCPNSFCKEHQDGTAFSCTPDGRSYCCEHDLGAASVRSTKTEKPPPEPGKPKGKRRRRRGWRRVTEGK

[8] = target: Glyceraldehyde-3-phosphate dehydrogenase (Homo sapiens, UniProt P04406)
Chain of Glyceraldehyde-3-phosphate dehydrogenase (P04406 whole entry): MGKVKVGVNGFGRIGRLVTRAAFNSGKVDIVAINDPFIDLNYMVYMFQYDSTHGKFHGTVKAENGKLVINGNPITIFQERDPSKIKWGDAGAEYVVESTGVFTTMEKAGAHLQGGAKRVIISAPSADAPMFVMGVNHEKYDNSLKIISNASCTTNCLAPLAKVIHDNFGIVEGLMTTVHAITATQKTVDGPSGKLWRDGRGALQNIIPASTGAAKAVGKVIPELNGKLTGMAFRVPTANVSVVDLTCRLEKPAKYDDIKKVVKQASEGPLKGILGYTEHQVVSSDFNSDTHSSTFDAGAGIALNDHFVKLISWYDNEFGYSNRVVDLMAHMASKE

[9] = target: T4, Bcl-2-related protein A1 (Mus musculus, UniProt Q07440); experiment: small-molecule antagonists of Bfl-1/BH3 interaction – biochemical, TR-FRET, mouse Bfl-1, confirmation (AID 621);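 note: TR-FRET binding of GST-Bfl-1 to FITC-labelled Bid peptide via terbium antibody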
T4 sequence (Q07440 whole entry): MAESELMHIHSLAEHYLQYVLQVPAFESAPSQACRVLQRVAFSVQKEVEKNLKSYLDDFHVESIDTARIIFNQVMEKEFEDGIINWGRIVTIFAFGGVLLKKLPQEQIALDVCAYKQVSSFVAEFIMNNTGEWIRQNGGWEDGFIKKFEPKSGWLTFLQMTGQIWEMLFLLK

[10] = target: T4, Bcl-2-related protein A1; experiment: Bfl-1 binding inhibitors, SAR follow-up, biochemical, fluorescence polarization (AID 1070)
[11] = target: T5, Leucine aminopeptidase (Plasmodium falciparum 3D7, UniProt Q8IL11); experiment: P. falciparum M17LAP inhibitors, primary screen, biochemical, fluorogenic H-Leu-NHMec substrate, 1536-well (AID 1619); format: functional
T5 sequence (Q8IL11 whole entry): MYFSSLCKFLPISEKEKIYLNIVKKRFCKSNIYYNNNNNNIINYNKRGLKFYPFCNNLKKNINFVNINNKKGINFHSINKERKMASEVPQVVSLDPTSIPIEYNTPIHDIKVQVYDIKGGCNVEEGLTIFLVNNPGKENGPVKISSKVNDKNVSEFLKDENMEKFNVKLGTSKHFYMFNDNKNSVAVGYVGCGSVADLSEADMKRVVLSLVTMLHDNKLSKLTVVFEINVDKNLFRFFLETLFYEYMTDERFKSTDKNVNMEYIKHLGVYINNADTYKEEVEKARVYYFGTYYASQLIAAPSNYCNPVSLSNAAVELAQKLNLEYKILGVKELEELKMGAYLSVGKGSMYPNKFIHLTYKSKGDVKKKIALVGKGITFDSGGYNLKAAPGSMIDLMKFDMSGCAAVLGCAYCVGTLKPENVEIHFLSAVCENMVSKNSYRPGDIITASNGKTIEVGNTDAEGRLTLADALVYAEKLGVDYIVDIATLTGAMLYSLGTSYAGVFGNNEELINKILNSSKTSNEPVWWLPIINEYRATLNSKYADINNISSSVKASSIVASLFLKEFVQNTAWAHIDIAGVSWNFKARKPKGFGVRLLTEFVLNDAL

[12] = target: Aspartyl aminopeptidase (Plasmodium falciparum 3D7, UniProt Q8I2J3); experiment: Counterscreen for inhibitors of M1 and M17 aminopeptidases: QFRET-based biochemical high throughput dose response assay for inhibitors of the Plasmodium falciparum M18 Aspartyl Aminopeptidase (PFM18AAP). [Related PubChem assays: 1619 (Screening assay (M17LAP inhibitors).), 1445 (Screening assay (M1AAP inhibitors).)]
Chain of Aspartyl aminopeptidase (Q8I2J3 whole entry): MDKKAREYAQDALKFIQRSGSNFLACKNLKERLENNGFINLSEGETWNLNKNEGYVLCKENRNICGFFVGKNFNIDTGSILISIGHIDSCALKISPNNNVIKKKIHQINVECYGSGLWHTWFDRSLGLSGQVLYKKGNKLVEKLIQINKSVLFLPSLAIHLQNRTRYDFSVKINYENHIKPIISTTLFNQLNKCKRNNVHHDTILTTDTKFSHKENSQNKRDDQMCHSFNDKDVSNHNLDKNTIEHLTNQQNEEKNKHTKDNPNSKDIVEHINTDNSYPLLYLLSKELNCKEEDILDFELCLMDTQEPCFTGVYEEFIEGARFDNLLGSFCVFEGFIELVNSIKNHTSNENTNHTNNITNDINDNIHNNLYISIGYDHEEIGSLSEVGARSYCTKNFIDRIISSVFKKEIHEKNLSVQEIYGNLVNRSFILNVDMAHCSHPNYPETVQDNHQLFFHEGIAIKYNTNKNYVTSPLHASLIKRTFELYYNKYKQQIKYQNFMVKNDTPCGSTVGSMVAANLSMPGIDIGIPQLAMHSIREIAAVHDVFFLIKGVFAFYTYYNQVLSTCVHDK

[13] = target: Procathepsin L (Homo sapiens, UniProt P07711); experiment: CTSL1 protease inhibition – biochemical, QFRET, 1536-well, counter-screen for M1/M17 aminopeptidase inhibitor project, dose response (AID 2214)
Chain of Procathepsin L (P07711 whole entry): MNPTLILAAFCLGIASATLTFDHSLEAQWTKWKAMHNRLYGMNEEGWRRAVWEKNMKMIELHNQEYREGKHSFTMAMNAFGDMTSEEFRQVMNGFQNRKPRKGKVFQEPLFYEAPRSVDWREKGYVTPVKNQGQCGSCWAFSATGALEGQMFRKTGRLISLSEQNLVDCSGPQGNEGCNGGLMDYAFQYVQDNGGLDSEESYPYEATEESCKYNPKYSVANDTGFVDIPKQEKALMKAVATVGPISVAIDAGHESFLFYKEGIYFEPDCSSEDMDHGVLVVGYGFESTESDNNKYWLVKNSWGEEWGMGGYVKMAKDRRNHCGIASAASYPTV

[14] = target: Voltage-gated inwardly rectifying potassium channel KCNH2 (Homo sapiens, UniProt Q12809); experiment: concentration-dependent hERG rescue from blockers – cell-based, thallium flux, dose response (AID 2121); format: ADME
Chain of Voltage-gated inwardly rectifying potassium channel KCNH2 (Q12809 whole entry): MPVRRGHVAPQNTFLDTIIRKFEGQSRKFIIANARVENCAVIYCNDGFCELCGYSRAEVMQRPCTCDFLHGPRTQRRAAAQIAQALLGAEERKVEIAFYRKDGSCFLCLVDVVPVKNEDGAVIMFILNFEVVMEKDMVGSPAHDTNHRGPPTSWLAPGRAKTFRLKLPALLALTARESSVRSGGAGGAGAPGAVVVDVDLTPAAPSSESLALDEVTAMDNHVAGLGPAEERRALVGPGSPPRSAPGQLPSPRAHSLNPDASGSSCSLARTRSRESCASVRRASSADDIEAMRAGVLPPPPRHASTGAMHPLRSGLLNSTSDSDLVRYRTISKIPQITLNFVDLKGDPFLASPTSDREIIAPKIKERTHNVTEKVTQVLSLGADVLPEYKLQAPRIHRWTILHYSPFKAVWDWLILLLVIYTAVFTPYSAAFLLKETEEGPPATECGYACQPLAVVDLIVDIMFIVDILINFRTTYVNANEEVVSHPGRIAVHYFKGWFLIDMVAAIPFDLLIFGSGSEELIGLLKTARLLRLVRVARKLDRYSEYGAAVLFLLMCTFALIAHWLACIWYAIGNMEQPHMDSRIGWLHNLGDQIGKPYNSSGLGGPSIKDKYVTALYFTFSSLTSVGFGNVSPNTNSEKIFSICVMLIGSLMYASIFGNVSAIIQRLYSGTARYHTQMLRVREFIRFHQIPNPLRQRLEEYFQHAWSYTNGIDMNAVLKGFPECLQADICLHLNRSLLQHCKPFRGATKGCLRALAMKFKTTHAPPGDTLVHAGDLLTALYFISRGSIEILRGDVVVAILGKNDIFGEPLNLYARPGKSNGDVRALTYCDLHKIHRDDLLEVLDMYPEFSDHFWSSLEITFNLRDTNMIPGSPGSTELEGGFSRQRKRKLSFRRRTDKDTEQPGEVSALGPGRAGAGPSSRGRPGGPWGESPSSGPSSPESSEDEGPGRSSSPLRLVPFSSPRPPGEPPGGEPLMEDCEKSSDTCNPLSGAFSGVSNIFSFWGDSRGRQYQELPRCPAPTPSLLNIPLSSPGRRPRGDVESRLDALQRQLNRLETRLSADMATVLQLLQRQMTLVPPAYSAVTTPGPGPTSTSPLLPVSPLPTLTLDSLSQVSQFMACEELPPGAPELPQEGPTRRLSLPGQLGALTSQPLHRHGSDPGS

[15] = target: T6, Hexokinase (Trypanosoma brucei, UniProt Q38C41); experiment: Confirmation assay for inhibitors of Trypanosoma brucei hexokinase 1-Analogue-first series. [Related pubchem assays (depositor defined):AID1430, AID1632, AID2516, AID2560, AID2579, AID2600, AID449725, AID492951]; format: functional
T6 sequence (Q38C41 whole entry): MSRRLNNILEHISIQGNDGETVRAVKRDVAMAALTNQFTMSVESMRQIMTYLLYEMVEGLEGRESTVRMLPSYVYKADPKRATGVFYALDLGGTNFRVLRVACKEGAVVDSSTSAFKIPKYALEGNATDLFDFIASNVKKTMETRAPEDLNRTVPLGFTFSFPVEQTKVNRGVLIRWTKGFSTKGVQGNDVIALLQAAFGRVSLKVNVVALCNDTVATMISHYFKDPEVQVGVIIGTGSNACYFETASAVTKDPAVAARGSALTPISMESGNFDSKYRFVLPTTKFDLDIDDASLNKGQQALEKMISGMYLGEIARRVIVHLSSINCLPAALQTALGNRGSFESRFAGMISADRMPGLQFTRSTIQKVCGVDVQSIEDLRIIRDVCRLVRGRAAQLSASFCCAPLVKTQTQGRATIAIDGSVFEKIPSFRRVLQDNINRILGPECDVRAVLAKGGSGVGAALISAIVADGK

[16] = target: Serine/threonine-protein phosphatase PP1-alpha catalytic subunit (Homo sapiens, UniProt P62136); experiment: inhibition of protein phosphatase 1 activity – biochemical, fluorescence, dose response (AID 2394)
Chain of Serine/threonine-protein phosphatase PP1-alpha catalytic subunit (P62136 whole entry): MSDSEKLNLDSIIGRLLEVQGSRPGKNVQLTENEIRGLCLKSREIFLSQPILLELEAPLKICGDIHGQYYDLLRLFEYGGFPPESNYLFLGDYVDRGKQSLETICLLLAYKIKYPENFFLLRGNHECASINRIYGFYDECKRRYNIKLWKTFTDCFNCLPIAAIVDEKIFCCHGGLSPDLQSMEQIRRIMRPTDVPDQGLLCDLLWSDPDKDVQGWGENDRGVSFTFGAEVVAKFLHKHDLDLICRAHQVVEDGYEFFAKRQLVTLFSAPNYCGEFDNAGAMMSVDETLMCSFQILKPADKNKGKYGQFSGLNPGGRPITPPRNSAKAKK

[17] = viability of PTEN-deleted HCT116 cells – cell-based, HCT116 PTEN knockout, dose response (AID 1047); format: functional;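 note: HCT116 colon tumor cells with PTEN knocked out; cells exposed to compound for 60 hours before readout; potency for loss of cell viability measured by luminescence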
[18] = target: Serine/threonine-protein phosphatase (Homo sapiens, UniProt Q9BPW0); experiment: inhibition of protein phosphatase 5 activity – biochemical, fluorescence, dose response (AID 2395)
Chain of Serine/threonine-protein phosphatase (Q9BPW0 whole entry): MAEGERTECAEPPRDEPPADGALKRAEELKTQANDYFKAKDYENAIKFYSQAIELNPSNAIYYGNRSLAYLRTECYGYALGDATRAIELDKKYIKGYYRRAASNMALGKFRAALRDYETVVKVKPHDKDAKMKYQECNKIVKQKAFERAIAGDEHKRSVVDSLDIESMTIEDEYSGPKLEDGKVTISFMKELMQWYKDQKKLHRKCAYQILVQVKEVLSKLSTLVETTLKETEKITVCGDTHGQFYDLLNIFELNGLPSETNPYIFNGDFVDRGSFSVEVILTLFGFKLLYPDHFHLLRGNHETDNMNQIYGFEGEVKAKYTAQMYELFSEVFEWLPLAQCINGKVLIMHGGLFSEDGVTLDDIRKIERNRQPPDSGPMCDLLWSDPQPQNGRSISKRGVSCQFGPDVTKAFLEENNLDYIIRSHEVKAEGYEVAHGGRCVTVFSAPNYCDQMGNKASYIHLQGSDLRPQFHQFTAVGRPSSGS

[19] = viability of HCT116 lacking mutant beta-catenin – cell-based, human colon tumor, dose response (AID 1045); format: functional;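 note: HCT116 colon tumor cells with beta catenin knocked out; cells exposed to compound for 60 hours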
[20] = target: Sphingosine 1-phosphate receptor 2 (Homo sapiens, UniProt O95136); experiment: Dose Response Cell Based Assay for Agonists of the S1P2 Receptor. [Related pubchem assays: 729, 736, 843 ]; format: functional
Chain of Sphingosine 1-phosphate receptor 2 (O95136 whole entry): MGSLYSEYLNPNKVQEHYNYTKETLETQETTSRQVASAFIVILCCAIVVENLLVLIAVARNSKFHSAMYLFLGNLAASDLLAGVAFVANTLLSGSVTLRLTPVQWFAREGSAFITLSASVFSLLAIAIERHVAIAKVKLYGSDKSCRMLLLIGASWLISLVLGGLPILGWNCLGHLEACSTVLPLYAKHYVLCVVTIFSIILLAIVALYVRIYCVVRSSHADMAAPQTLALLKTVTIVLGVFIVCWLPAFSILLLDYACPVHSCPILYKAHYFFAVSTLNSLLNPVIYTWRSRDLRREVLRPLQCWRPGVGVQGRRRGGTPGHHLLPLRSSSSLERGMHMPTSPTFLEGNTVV

[21] = target: T7, Protein RecA (Mycobacterium tuberculosis, UniProt P9WHJ3); experiment: Fluorescence Cell-Free Homogeneous Dose Retest to Identify Inhibitors of RecA-Intein Splicing Activity. [Related pubchem assays (depositor defined):AID2097, AID2223, AID489010, AID492950]; format: functional
T7 sequence (P9WHJ3 whole entry): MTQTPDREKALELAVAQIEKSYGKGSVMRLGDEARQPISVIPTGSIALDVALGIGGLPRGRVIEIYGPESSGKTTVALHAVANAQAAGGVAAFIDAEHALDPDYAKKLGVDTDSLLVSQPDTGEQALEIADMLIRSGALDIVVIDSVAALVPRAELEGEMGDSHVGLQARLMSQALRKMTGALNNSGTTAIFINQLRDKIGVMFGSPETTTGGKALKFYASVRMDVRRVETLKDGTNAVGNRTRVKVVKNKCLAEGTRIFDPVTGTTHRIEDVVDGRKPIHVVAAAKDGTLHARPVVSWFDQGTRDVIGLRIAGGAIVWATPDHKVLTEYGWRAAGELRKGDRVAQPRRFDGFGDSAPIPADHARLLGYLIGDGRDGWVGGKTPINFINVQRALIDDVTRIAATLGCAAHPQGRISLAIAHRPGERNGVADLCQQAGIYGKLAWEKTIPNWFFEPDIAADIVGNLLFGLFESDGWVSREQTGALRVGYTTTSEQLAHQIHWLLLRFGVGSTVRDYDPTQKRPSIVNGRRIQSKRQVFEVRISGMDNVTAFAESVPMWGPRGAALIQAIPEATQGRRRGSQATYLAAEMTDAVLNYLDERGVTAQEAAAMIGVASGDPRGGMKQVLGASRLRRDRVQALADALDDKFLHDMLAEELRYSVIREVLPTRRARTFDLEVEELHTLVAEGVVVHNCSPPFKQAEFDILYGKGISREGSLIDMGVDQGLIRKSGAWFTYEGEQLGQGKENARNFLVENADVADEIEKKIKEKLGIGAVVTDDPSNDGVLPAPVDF

Question: Which results are given for `O=C(/C=C/c1ccc(O)c(O)c1)c1ccccc1O`?
Answer: EC50 [1]: > 300 µM (not active); EC50 [2]: 42.3 µM (active); EC50 [3]: 19.5 µM (active); IC50 [4]: 17.4 µM (active); EC50 [5]: 0.437 µM (active); EC50 [6]: 2.23 µM (active); AC50 [7]: > 20 µM (inactive)

Question: For `CC1C(=O)NCCN1C1=C(Cl)C(=O)N(c2ccc(Cl)c(Cl)c2)C1=O` (stereo unspecified), which IC50 [8] is on record?
Answer: > 50 µM (inconclusive)

Question: And the IC50 [9]?
Answer: 2.03 µM (active)

Question: What about the IC50 [10] of the same compound?
Answer: 5.63 µM (active)

Question: Which IC50 [11] does the source give for `Cc1ccc(Nc2nnc(SCc3cc(=O)n4ccsc4n3)s2)c(C)c1` here?
Answer: 6.49 µM (active)

Question: And the IC50 [12]?
Answer: > 73.5 µM (not active)

Question: What about the IC50 [13] of the same compound?
Answer: > 59.6 µM (not active)

Question: What does the source list for `COc1ccc(C(=O)Nc2ccccc2C(=O)O)cc1Cl`?
Answer: EC50 [14]: 13 µM (active); IC50 [15]: > 25 µM (inactive)

Question: Which results are given for `CC(C)CNC(=O)c1c(N)n(Cc2ccc3c(c2)OCO3)c2nc3ccccc3nc12`?
Answer: IC50 [16]: > 67 µM (not active); EC50 [17]: 11.9 µM (active); IC50 [18]: 17.9 µM (not active); EC50 [19]: 16.3 µM (active); EC50 [20]: 2.61 µM (active); EC50 [21]: > 380 µM (inconclusive)
